≈ marks a conversion by molar mass, not a printed value. Where “and” joins values, the source holds several entries; their conditions need not be identical. Equal entries are not always repeated. Entries after “also recorded” stand apart in the source; their conditions may differ. Where two headings read alike, the source gives them in different places.
What was measured:
[1] = Dissolution testing of capsules containing 150 mg torasemide in citrate buffer (pH 4.5); type: physicochemical; details: for % dissolved: citrate buffer pH 4.5, 500 ml, 37° C., 150 rpm, 150 mg capsule; for 8 hr solubility, %: citrate, pH 4.5, 8 hr
Procedure: (§1) A blend was prepared of 75 wt. % of modification III and 25 wt. % of modification I, and a similar blend was prepared of 25 wt. % of modification III and 75 wt. % of modification I. These blends were incorporated into capsules containing 150 mg of total torasemide, and pure modification I and pure modification III 150 mg. capsules were also prepared. The capsules were subjected to dissolution testing in water, and in a citrate buffer (pH 4.5), at 37° C. under stirring.

[2] = Dissolution testing of capsules containing 150 mg torasemide in water; type: physicochemical; details: for % dissolved: 500 ml, 37° C., 150 rpm, 150 mg capsule
Procedure: as §1, with “FIG. 4 is a plot similar to that of FIG. 3, but in water rather than citrate buffer; FIG. 6 is a plot similar to that of FIG. 5, but in water. In this and the following examples, microfine torasemide of modification I and microfine torasemide of modification III were blended together. A” for “A”

[3] = earlier patents/knowledge, storage of pure active material or in tablets, cited from earlier work
[4] = Heats of fusion, transition and solution of crystal forms; type: physicochemical; details: for Heat of fusion ± 95%-c.i.: heating rate 5K min^-1; for Heat of solution: in I-butanol at 20° C.
[5] = Solubility at 20° C. at pH 4.90; type: physicochemical
Procedure: Solubility (mmol L^-1) at 20° C. at pH 4.90

[6] = Water content after storing in relative humidity of 92% at 25° C.; type: physicochemical; details: 92% relative humidity, Mod. III value depending on particle size
Procedure: |Water content (%) after storing in relative humidity |of 92% at 25° C. on particle size

[7] = Stability / rearrangement of crystal modification; type: physicochemical
[8] = Serum concentration of torasemide after oral administration to rats; type: in vivo, rat; details: male rats (FIG. 1)
Source text: FIG. 1 is a plot of serum concentration levels in male rats of torasemide of modification I and modification III versus time after oral administration;
FIG. 2 is similar to FIG. 1, but reflects the serum concentrations in female rats;

[9] = Solubility of modification III versus modification I above pH 3; type: physicochemical; details: above pH 3 and especially at a pH of approximately 7.4
[10] = in vivo; cited from earlier work
[11] = test system: sodium-potassium-2 chloride transport mechanism in the ascending limb of the loop of Henle; details: loop diuretic; cited from earlier work

| SMILES | % dissolved ([1]; 0 minutes) [%] | % dissolved ([1]; 15 minutes) | % dissolved ([1]; 30 minutes) | % dissolved ([1]; 45 minutes) | % dissolved ([1]; 60 minutes) | % dissolved ([1]; 120 minutes) | % dissolved ([1]; 180 minutes) | % dissolved ([1]; 240 minutes) | % dissolved ([1]; 300 minutes) | % dissolved ([1]; 480 minutes) | % dissolved ([2]; 0 minutes) [%] | % dissolved ([2]; 15 minutes) | % dissolved ([2]; 30 minutes) | % dissolved ([2]; 45 minutes) | % dissolved ([2]; 60 minutes) | % dissolved ([2]; 120 minutes) | % dissolved ([2]; 180 minutes) | % dissolved ([2]; 240 minutes) | % dissolved ([2]; 300 minutes) | % dissolved ([2]; 480 minutes) | further results |
| --- | --- | --- | --- | --- | --- | --- | --- | --- | --- | --- | --- | --- | --- | --- | --- | --- | --- | --- | --- | --- | --- |
| Cc1cccc(Nc2ccncc2S(=O)(=O)NC(=O)NC(C)C)c1 [Mod. I, 1-isopropyl-3-[(4-m-toluidino-3pyridyl)-sulphonyl)-urea] | 0 | 13,4% | 30,3% | 38,3% | 43,5% | 54,9% | 61% | 63,2% | 63,1% | 63,9% | 0 | 30,6% | 51,3% | 58,5% | 61,6% | 64,9% | 65,9% | 66,3% | 66,8% | 67,3% | 8 hr solubility, % ([1]; listed as Modification I): 63.9%; 8 hr solubility, % ([2]; listed as Modification I): 67.3%; stability / rearrangement of modification ([3]; listed as modification I): stable in tablets and did not rearrange again back into modification II; Heat of fusion ± 95%-c.i. [4]: 8.89 ± 0.454 kcal/mol; Heat of solution [4]: 8.63 kcal/mol; Solubility [5]: 340 µM (≈ 118 µg/mL); Water content after storing in relative humidity of 92% at 25° C. [6]: 0.2% |
| Cc1cccc(Nc2ccncc2S(=O)(=O)NC(=O)NC(C)C)c1 [Mod. III, 1-isopropyl-3-[(4-m-toluidino-3pyridyl)-sulphonyl)-urea] | 0 | 63,3% | 91% | 97,4% | 99,5% | 101% | 101,5% | 101,6% | 101,8% | 102,5% | 0 | 62,8% | 96,6% | 100,4% | 101,3% | 102,1% | 102,5% | 102,8% | 102,2% and 103,2% | 103,3% | stability of modification [7]: stable; 8 hr solubility, % ([1]; listed as Modification III): 102.5%; 8 hr solubility, % ([2]; listed as Modification III): 103.3%; Heat of transition ± 95%-c.i. ([4]; at about 159° C., the difference of the heats of fusion): -1.96 ± 0.502 kcal/mol; Heat of fusion ± 95%-c.i. [4]: 7.15 ± 0.22 kcal/mol; Heat of solution [4]: 7.12 kcal/mol; Solubility [5]: 930 µM (≈ 324 µg/mL); serum concentration relative to modification I ([8]; 20 minutes after oral administration): more than twice the serum concentration as modification I; serum concentration relative to modification I ([8]; 40 minutes after oral administration): almost twice the serum concentration as modification I; solubility versus modification I [9]: significantly greater solubility than modification I; Water content after storing in relative humidity of 92% at 25° C. [6]: 1.2% |
| Cc1cccc(Nc2ccncc2S(=O)(=O)NC(=O)NC(C)C)c1 [Modification II, 1-isopropyl-3-[(4-m-toluidino-3pyridyl)-sulphonyl)-urea] |  |  |  |  |  |  |  |  |  |  |  |  |  |  |  |  |  |  |  |  | stability / rearrangement of modification [3]: relatively unstable; also recorded: in the case of storage of the pure active material, does not change; also recorded: rearranges more or less quickly into modification I |
| Cc1cccc(Nc2ccncc2S(=O)(=O)NC(=O)NC(C)C)c1 [Torasemide, 1-isopropyl-3-[(4-m-toluidino-3pyridyl)-sulphonyl)-urea] |  |  |  |  |  |  |  |  |  |  |  |  |  |  |  |  |  |  |  |  | diuresis compared with other standard loop diuretics [10]: less intense initial diuresis and a sustained duration of action; mechanism of action [11]: blocks the sodium-potassium-2 chloride transport mechanism in the ascending limb of the loop of Henle |

From patent US5914336A, “Method of controlling the serum solubility of orally administered torasemide and composition relating thereto” (Boehringer Mannheim GmbH, priority 1998, dated 1999)
